Measured values from ChEMBL document CHEMBL1201862, “PubChem BioAssay data set” (2004).
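The compound was tested at five concentrations on cells cultured in 96-well plates, with a 48-hour exposure period. The concentration for 50% growth inhibition is given as GI50.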 Active and inactive are the calls of the source. Cut-off read from the data, not from the text of the source: active = GI50 up to about 1.1 µM and inactive = higher.

What was measured:
Experiment in all cases: NCI-60 cell line screen, 48 h
[1] = tested on: LOX IMVI
[2] = tested on: RPMI-8226
[3] = tested on: MOLT-4
[4] = tested on: CCRF-CEM
[5] = tested on: NCI-H522
[6] = tested on: SK-MEL-28
[7] = tested on: TK-10
[8] = tested on: UACC-62
[9] = tested on: NCI-H460
[10] = tested on: Malme-3M
[11] = tested on: PC-3
[12] = tested on: K562
[13] = tested on: DU-145
[14] = tested on: MDA-MB-231
[15] = tested on: CAKI-1
[16] = tested on: KM12
[17] = tested on: MDA-N
[18] = tested on: SNB-19
[19] = tested on: HCT-116

Measured: GI50

O=C1Cc2c(-c3ccccc3)cc(-c3ccc4ccccc4c3)nc2-c2ccccc2N1
inactive: [1] 16.7 µM | [2] 17.7 µM | [3] > 100 µM | [4] > 100 µM | [5] 3.25 µM | [6] > 100 µM | [7] 12.3 µM | [8] 10.7 µM | [9] 11.4 µM | [10] 7.06 µM | [11] 15.7 µM | [12] 2.39 µM | [13] 34.5 µM | [14] 5.79 µM | [15] 3.25 µM | [16] 4.89 µM | [17] 8.53 µM | [18] 3.06 µM | [19] 8.45 µM

CC(=O)/C(=C\Nc1c(C)n(C)n(C)c1=O)C(=O)c1ccccc1
inactive: [1] > 50 µM | [2] > 50 µM | [3] > 50 µM | [4] > 50 µM | [5] > 50 µM | [6] > 50 µM | [7] > 50 µM | [8] > 50 µM | [9] > 50 µM | [10] > 50 µM | [11] > 50 µM | [12] > 50 µM | [13] > 50 µM | [14] > 50 µM | [15] > 50 µM | [17] > 50 µM | [18] > 50 µM | [19] > 50 µM

O=c1nc(N2CCCCC2)sc2[nH]c3ccccc3c12
inactive: [1] 74.8 µM | [2] 40.9 µM | [3] > 100 µM | [5] > 100 µM | [6] > 100 µM | [7] 66.2 µM | [8] > 100 µM | [9] 98.2 µM | [10] 68.4 µM | [11] > 100 µM | [12] > 100 µM | [13] > 100 µM | [14] 78.7 µM | [15] > 100 µM | [16] > 100 µM | [17] > 100 µM | [18] 63.1 µM

CC(C)Oc1ccc2c(c1)OCC1Cc3ccccc3OC21 (stereo unspecified)
inactive: [1] > 100 µM | [2] 52.8 µM | [3] 36.2 µM | [4] > 100 µM | [5] 79.1 µM | [7] 51.3 µM | [8] > 100 µM | [10] > 100 µM | [11] > 100 µM | [12] 88.1 µM | [13] > 100 µM | [14] > 100 µM | [15] > 100 µM | [16] > 100 µM | [17] 49.2 µM | [19] > 100 µM

CSc1cnn(CCC#N)c(=O)n1
inactive: [1] 93.5 µM | [2] > 100 µM | [3] 27.1 µM | [4] 31 µM | [5] > 100 µM | [6] > 100 µM | [7] > 100 µM | [8] > 100 µM | [10] > 100 µM | [11] > 100 µM | [12] 33.1 µM | [13] > 100 µM | [14] > 100 µM | [15] > 100 µM | [16] > 100 µM | [17] > 100 µM | [18] > 100 µM | [19] > 100 µM

COC(=O)c1c(O)ccc2c1c1c(n2Cc2ccccc2)C(=O)c2ccccc2C1=O
inactive: [1] 15.6 µM | [2] 8.55 µM | [3] 4.88 µM | [4] 15 µM | [5] 11 µM | [6] 17.5 µM | [7] 17.1 µM | [9] 10.7 µM | [10] 28.8 µM | [11] 13.7 µM | [12] 11.8 µM | [13] 18.3 µM | [14] 16.2 µM | [15] 18.7 µM | [16] 12.9 µM | [17] 20.1 µM | [18] 14.9 µM | [19] 14.2 µM

O=C1NC(N2CCOCC2)=N/C1=C\c1cccs1
inactive: [1] > 100 µM | [2] > 100 µM | [3] > 100 µM | [4] > 100 µM | [5] > 100 µM | [6] > 100 µM | [7] > 100 µM | [8] > 100 µM | [10] > 100 µM | [11] > 100 µM | [13] > 100 µM | [14] > 100 µM | [15] > 100 µM | [16] 36.2 µM | [17] > 100 µM | [18] > 100 µM | [19] > 100 µM

CCc1c(-c2ccc(OC)cc2)c(=O)oc2cc(O)ccc12
inactive: [1] 30.1 µM | [2] 18.6 µM | [3] 16 µM | [4] 27.4 µM | [5] 29.5 µM | [6] 36.7 µM | [8] 19.4 µM | [9] 23.9 µM | [10] 25.5 µM | [11] 24.7 µM | [12] 29.8 µM | [13] 33.2 µM | [14] 57.5 µM | [15] 39.3 µM | [16] 37.2 µM | [17] 28.1 µM | [18] 56.1 µM | [19] 36.5 µM
